Laboratory results from ChEMBL document CHEMBL5465560, “Selectivity Literature for EUbOPEN Chemogenomic Library” (2024).
Blank lines part the entries; values can stand above or below the molecule they belong to.

What was measured:
[1] = target: STE20/SPS1-related proline-alanine-rich protein kinase (Homo sapiens) (UniProt Q9UEW8); experiment: Selectivity interaction (Kinase panel (DSF assay)) EUB0001559a STK39
[2] = target: T1, Peripheral plasma membrane protein CASK (Homo sapiens) (UniProt O14936); experiment: Selectivity interaction (KinomeScan (DiscoverX)) EUB0000607a CASK; conditions: at 10 µM
T1 sequence (whole entry): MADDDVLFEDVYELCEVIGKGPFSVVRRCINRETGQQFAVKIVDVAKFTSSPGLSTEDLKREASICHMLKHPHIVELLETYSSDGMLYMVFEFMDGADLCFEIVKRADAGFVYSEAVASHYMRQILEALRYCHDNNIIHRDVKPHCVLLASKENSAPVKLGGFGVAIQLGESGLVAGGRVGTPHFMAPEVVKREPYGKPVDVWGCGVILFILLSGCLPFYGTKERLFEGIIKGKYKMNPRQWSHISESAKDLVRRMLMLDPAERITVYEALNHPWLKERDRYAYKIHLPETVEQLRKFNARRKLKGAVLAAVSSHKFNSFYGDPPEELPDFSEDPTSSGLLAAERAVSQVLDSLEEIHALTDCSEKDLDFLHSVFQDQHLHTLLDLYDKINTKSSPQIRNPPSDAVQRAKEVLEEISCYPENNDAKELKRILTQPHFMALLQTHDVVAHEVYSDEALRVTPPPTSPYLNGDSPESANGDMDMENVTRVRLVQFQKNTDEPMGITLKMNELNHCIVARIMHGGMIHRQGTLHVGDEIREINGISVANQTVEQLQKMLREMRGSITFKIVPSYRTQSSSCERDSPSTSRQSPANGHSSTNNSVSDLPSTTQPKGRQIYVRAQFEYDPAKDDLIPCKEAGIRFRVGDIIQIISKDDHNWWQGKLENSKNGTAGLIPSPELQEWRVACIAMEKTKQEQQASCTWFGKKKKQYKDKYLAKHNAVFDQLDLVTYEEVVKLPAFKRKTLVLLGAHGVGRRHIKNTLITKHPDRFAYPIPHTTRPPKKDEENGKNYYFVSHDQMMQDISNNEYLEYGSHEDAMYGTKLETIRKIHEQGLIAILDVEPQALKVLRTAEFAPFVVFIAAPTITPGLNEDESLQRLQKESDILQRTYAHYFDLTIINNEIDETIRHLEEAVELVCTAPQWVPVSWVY

[3] = target: T2, Serine/threonine-protein kinase Nek1 (Homo sapiens) (UniProt Q96PY6); conditions: at 10 µM
T2 sequence (whole entry): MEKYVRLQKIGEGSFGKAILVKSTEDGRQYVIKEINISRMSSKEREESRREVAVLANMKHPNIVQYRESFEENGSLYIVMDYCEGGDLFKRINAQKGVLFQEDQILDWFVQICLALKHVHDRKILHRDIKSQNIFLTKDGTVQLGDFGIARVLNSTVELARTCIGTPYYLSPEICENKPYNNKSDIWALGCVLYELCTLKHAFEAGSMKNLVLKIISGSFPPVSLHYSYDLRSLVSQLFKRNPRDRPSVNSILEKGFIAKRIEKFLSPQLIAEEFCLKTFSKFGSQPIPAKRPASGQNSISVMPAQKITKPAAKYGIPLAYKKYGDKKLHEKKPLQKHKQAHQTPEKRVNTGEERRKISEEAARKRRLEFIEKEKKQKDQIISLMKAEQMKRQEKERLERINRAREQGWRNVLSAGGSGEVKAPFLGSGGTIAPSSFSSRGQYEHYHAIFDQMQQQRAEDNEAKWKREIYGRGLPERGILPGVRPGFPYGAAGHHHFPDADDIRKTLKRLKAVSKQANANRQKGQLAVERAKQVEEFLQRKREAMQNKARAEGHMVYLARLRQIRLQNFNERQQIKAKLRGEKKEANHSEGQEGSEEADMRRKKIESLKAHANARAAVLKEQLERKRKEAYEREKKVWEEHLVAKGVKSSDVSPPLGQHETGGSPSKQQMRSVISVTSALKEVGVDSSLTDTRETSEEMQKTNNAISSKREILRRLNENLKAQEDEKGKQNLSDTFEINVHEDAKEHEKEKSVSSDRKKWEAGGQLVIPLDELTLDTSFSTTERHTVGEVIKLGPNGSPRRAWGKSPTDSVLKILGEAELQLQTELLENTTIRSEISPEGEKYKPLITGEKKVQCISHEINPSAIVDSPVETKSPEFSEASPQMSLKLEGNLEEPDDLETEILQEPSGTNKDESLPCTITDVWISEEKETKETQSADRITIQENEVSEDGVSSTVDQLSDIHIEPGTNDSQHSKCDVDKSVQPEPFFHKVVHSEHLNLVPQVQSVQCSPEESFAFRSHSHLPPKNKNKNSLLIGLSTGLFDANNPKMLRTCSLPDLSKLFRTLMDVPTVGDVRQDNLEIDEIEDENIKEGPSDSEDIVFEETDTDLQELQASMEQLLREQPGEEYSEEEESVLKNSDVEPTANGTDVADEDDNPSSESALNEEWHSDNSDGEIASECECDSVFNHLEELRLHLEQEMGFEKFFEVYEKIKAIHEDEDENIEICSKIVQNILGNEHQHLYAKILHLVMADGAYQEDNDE

[4] = target: Serine/threonine-protein kinase 38-like (Homo sapiens) (UniProt Q9Y2H1); experiment: Selectivity interaction (KinomeScan (DiscoverX)) EUB0000666a STK38L; conditions: at 10 µM
Chain of Serine/threonine-protein kinase 38-like (Homo sapiens) (Q9Y2H1 2-464 limits assumed): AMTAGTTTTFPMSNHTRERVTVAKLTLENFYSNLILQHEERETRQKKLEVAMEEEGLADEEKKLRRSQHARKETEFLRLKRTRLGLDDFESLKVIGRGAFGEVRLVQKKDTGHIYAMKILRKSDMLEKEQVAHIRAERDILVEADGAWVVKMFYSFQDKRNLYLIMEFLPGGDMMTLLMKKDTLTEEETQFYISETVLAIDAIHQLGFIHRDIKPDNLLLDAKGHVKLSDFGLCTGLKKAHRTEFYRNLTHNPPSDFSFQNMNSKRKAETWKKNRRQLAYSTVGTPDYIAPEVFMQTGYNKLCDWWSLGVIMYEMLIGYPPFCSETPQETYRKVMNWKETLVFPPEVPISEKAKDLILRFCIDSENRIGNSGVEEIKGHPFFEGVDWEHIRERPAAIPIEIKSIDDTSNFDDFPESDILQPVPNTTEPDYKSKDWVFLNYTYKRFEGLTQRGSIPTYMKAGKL

- dTM [1]: 0.8 K
Structure (SMILES): CN(C(=O)c1cnn2cccnc12)c1cc2c(cc1N1CCOCC1)C(=O)N(C[C@@H](F)C(C)(C)O)C2

Structure (SMILES): CNC(=O)Nc1ccc(-c2nc(N3CC4CCC(C3)O4)c3cnn(C4CCC5(CC4)OCCO5)c3n2)cc1
- % of control [2]: 64%

Structure (SMILES): Cc1cc([C@@H](C)Nc2ccccc2C(=O)O)c2nc(N3CCOCC3)cc(=O)n2c1 [AZD-6482]
- % of control [3]: 85%

Structure (SMILES): O=C(NOC[C@H](O)CO)c1ccc(F)c(F)c1Nc1ccc(I)cc1F
- % of control [4]: 100%
